Source: patent publication US7199114B2, “Triterpene quaternary salts as biologically active surfactants” (The Regents of the University of Minnesota, priority 2002, dated 2007)

How the values were obtained:
[1] = Turf plot trial at Clemson University (Example 85), turf quality; assay type: in vivo, creeping bentgrass, cv. Pennlinks; details: 1 to 9 scale, 50 grams active ingredient per 1000 square feet
Method: (§1) Plots of creeping bentgrass, cv. “Pennlinks,” were treated with water based sprays of the test compounds. Sprays were delivered by CO2-charged sprayer to deliver the equivalent of 2 gallons of spray per 1000 sq. ft of plot area. Plots were 15 sq. ft. each, and treatments were mixed to apply material to 75 sq. ft (5 replicates), although only 4 replicates were treated. […] Daconil Ultrex® was applied at 3.2 oz./1000 sq. ft. for 14 days. The experiment used a randomized complete block design, with 4 replicates per treatment. Disease pressure was high. Pennlinks […] is moderately to highly susceptible to both dollar spot and brown patch. For brown patch, caused by Rhozoctonia sofani. a visual estimate of the percent of the plot area affected was recorded. Turf quality was estimated on a 1 to 9 scale, with 1 being worst and 9 being perfect. A rating of 6 is considered acceptable.
(§2) Plots of creeping bentgrass, cv. Pennlinks, were treated with water-based sprays as in Example 84 at Clemson University. Treatment application dates were May 7. May 14, May 28, and June 11. Plots were rated visually, estimating the percent of the area affected by dollar spot fungus […]. Turf quality was rated on a 1 to 9 scale, with 9 being perfect turf, as in Example 84. Disease pressure was moderately high to high when the trial was initiated, with existing dollar spot present.

[2] = test system: dollar spot fungus (Agrostis stolonifera); assay: Turf plot trial at Clemson University (Example 85), area affected by dollar spot; assay type: in vivo; details: 50 grams active ingredient per 1000 square feet
Method: as §1, §2

[3] = Antifungal treatment on turf grass plots (Example 84), turf quality; assay type: in vivo, creeping bentgrass, cv. Pennlinks; details: 1 to 9 scale, 9 perfect, 17.8 g/1000 sq. ft. (Daconil Ultrex 3.2 oz./1000 sq. ft.)
Method: (§3) Plots of creeping bentgrass, cv. “Pennlinks,” were treated with water based sprays of the test compounds. Sprays were delivered by CO2-charged sprayer to deliver the equivalent of 2 gallons of spray per 1000 sq. ft of plot area. Plots were 15 sq. ft. each, and treatments were mixed to apply material to 75 sq. ft (5 replicates), although only 4 replicates were treated. The quaternary salts of triterpenes were applied at 17.8 g/1000 sq. ft. for 14 days. Daconil Ultrex® was applied at 3.2 oz./1000 sq. ft. for 14 days. The experiment used a randomized complete block design, with 4 replicates per treatment. Disease pressure was high. Pennlinks […] is moderately to highly susceptible to both dollar spot and brown patch. For brown patch, caused by Rhozoctonia sofani. a visual estimate of the percent of the plot area affected was recorded. Turf quality was estimated on a 1 to 9 scale, with 1 being worst and 9 being perfect. A rating of 6 is considered acceptable.

[4] = test system: brown patch, caused by Rhozoctonia sofani; assay: Antifungal treatment on turf grass plots (Example 84), brown patch; assay type: in vivo; details: 17.8 g/1000 sq. ft. (Daconil Ultrex 3.2 oz./1000 sq. ft.)
Method: as §3

dollar spot = assay: Antifungal treatment on turf grass plots (Example 84), dollar spot count; assay type: in vivo; details: 17.8 g/1000 sq. ft. (Daconil Ultrex 3.2 oz./1000 sq. ft.)
Method: as §3

[5] = Table 2 experiment, Jul. 2, 2001
[6] = Table 2 experiment, Jul. 9, 2001
[7] = Table 2 experiment, Jul. 16, 2001
[8] = Table 2 experiment, Jun. 25, 2001
[9] = Table 3 experiment, Jul. 2, 2001
[10] = Table 3 experiment, Jul. 9, 2001
[11] = Table 3 experiment, Jun. 25, 2001
[12] = Table 3 experiment, Jul. 16, 2001

Row | SMILES | Turf quality [3, 5] | Turf quality [3, 6] | Turf quality [3, 7] | Turf quality [3, 8] | Turf quality [3, 9] | Turf quality [3, 10] | Turf quality [3, 11] | Brown Patch % of plot infected [4, 5] [%] | Brown Patch % of plot infected [4, 6] [%] | Brown Patch % of plot infected [4, 7] [%] | Brown Patch % of plot infected [4, 8] [%] | Brown Patch % of plot infected [4, 9] [%] | Brown Patch % of plot infected [4, 10] | Brown Patch % of plot infected [4, 12] [%] | Brown Patch % of plot infected [4, 11] [%] | Dollar Spot # of spots per plot (dollar spot; [5]) [spots per plot] | Dollar Spot # of spots per plot (dollar spot; [7]) [spots per plot] | Dollar Spot # of spots per plot (dollar spot; [8]) [spots per plot] | Dollar Spot # of spots per plot (dollar spot; [9]) | Dollar Spot # of spots per plot (dollar spot; [10]) [spots per plot] | other results
1 | C=C(C)[C@@H]1CC[C@]2(COC(=O)C[n+]3ccc(N(C)C)cc3)CC[C@]3(C)C(CCC4[C@@]5(C)CC[C@H](OC(=O)C[n+]6ccc(N(C)C)cc6)C(C)(C)C5CC[C@]43C)C12.[Cl-].[Cl-] (some centres unmarked) [Compound 46, Lup-20(29)-ene-3,28-bis[N-(4-dimethylaminopyridinium)acetate] dichloride] | – | – | – | – | – | – | – | – | – | – | – | – | – | – | – | – | – | – | – | – | Turf quality ([1]; Table 5, Jun. 3, 2002): 5.40 ab; Turf quality ([1]; Table 5, Jun. 17, 2002): 4.52 ab; Turf quality ([1]; Table 5, May 27, 2002): 4.00 ab; Turf quality ([1]; Table 6, May 8, 2002): 3.25 a; Turf quality ([1]; Table 6, May 13, 2002): 3.38 a; Turf quality ([1]; Table 6, May 20, 2002): 3.50 a; % of area infected ([2]; Table 5 c2, Jun. 3, 2002): 23.5 a %; % of area infected ([2]; Table 5 c4, Jun. 3, 2002): 24.0 a %; % of area infected ([2]; Table 6, May 8, 2002): 30.5 a %; % of area infected ([2]; Table 6, May 13, 2002): 28.0 a %; % of area infected ([2]; Table 6, May 20, 2002): 25.0 bc %; % of area infected ([2]; Table 6, May 27, 2002): 26.8 bcd %
2 | C=C(C)[C@@H]1CC[C@]2(COC(=O)C[N+](C)(C)CCN(C)C)CC[C@]3(C)C(CCC4[C@@]5(C)CC[C@H](OC(=O)C[N+](C)(C)CCN(C)C)C(C)(C)C5CC[C@]43C)C12.[Cl-].[Cl-] (some centres unmarked) [Compound 7, Lup-20(29)-ene-3,28-bis[(tetramethylethylenediamine-N-yl)acetate] dichloride] | 4.25 | 4.50 | 5.60 | 4.50 | 4.50 | 5.88 | 4.36 | 20.5 | 20.0 | 3.8 | 24.5 | 25.5 | significantly suppress brown patch | 8.8 | 17.5 | 22.3 | 2.3 | 18.3 | 21.5 spots per plot | 14.5 | Brown Patch % of plot infected ([4]; Table 3 experiment, Jul. 9, 2001, listed as Comp. 7): 10.8%; Dollar Spot # of spots per plot (dollar spot; [12]): 2.0 spots per plot; Dollar Spot # of spots per plot (dollar spot; [11]): 14.8 spots per plot
3 | C=C(C)[C@@H]1CC[C@]2(COC(=O)CC[n+]3ccccc3)CC[C@]3(C)C(CCC4[C@@]5(C)CC[C@H](OC(=O)CC[n+]6ccccc6)C(C)(C)C5CC[C@]43C)C12.[Cl-].[Cl-] (some centres unmarked) [Compound 14, Lup-20 (29)-ene-3,28-bis (N-pyridinium-3-propionate) dichloride] | 4.25 | 4.63 | 5.60 | 4.38 | 4.75 | 5.00 | 4.88 | 36.8 | 25.0 | 5.0 | 25.8 | 31.3 | 16.5% | 7.5 | 16.3 | 21.8 | 3.5 | 22.3 | 20.8 spots per plot | 14.5 | Dollar Spot # of spots per plot (dollar spot; [12]): 2.8 spots per plot; Dollar Spot # of spots per plot (dollar spot; [11]): 16.3 spots per plot
4 | C=C(C)[C@@H]1CC[C@]2(COC(=O)C[n+]3ccccc3)CC[C@]3(C)C(CCC4[C@@]5(C)CC[C@H](OC(=O)C[n+]6ccccc6)C(C)(C)C5CC[C@]43C)C12.[Cl-].[Cl-] (some centres unmarked) [Compound 1, Lup-20(29)-ene3,28-bis-(N-pyridiniumacetate) dichloride] | 4.50 | 6.00 | 5.57 | 4.50 | 4.50 | 5.38 | 4.88 | 35.0 | 13.8 | 3.8 | 18.8 | 24.0 | 20.5% | 8.6 | 15.8 | 22.3 | 2.8 | 21.0 | suppressed dollar spot | 13.0 | Dollar Spot # of spots per plot (dollar spot; Table 3 experiment, Jul. 2, 2001, listed as Comp. 1): 15.8 spots per plot; Dollar Spot # of spots per plot (dollar spot; [12]): 1.5 spots per plot; Dollar Spot # of spots per plot (dollar spot; [11]): 11.5 spots per plot
